How the values were obtained:
Parameters in all cases: key: +: Activity was detected; −: Activity was not detected
Thermus-derived TyrRS = target: T1, Thermus-derived TyrRS (Thermus thermophilus, UniProt P83453); assay: Qualitative test of AARS substrate specificity (AARS activity at 70° C.); assay type: biochemical, Thermus thermophilus HB8 strain; conditions: amino acids 200 μM, hydroxylamine 400 mM
T1 construct: host or cells: Escherichia coli BL21 (DE3)
Method: (§1) A test sample containing an amino acid as the measurement subject and a reaction mixture for quantifying amino acid having the following composition were mixed. The mixture was left standing at 70° C. to allow the AARS reaction to advance. The mixture in a volume of 600 μl, 60 μl of a 1 M 2-mercaptoethanol solution, and 240 μl of the color development solution mentioned below were mixed, then the mixture was left standing at room temperature for 20 minutes, and the absorbance was measured at 580 nm in a cuvette having an optical path length of 1 cm.
(§2) Reaction mixture for quantifying amino acid: 20 mM HEPES-NaOH (pH 8.0), 5 mM MgCl2, 0.5 mM ATP, and AARS (concentrations are final concentrations obtained after mixing with test sample)
(§3) Color developing solution: A solution obtained by mixing water and concentrated sulfuric acid at a ratio of 6:1 and dissolving (NH4)6Mo7O24.4H2O in the mixture at a concentration of 0.025 g/ml
(§4) Presence or absence of pyrophosphate generation was verified for the Thermotoga-derived CysRS, HisRS, LysRS, ProRS, SerRS, TrpRS, and TyrRS by using the AARS activity measurement method described in 9. and standard solutions of the various amino acids as test samples. AARSs were added to the reaction mixture at final concentrations of 0.3 (8 mU/ml), 0.1, 0.2 (3 mU/ml), 0.2, 0.1 (1 mU/ml), 0.1, 0.2 (20 mU/ml) mg/ml, respectively. The reaction mixtures were prepared so that the final concentration of Tyr was 1 mM, and the final concentrations of the other amino acids were 5 mM. As for the hydroxylamine concentration, it was added at a final concentration of 1000 mM for all the cases. Further, presence or absence of pyrophosphate production was also verified for the Thermus-derived MetRS and TyrRS by using the AARS activity measurement method described in 10. and standard solutions of the various amino acids as test samples. The reaction mixtures were prepared so that the final concentrations of the amino acids were 200 μM. Hydroxylamine was added at a final concentration of 400 mM.
(§5) Detection or no detection of the activity in the reaction mixtures containing a combination of each AARS and amino acid are shown in Table 2. The symbol + indicates detection of the activity, and − indicates no detection of the activity.

Thermus-derived MetRS = target: T2, Thermus-derived MetRS (Thermus thermophilus, UniProt P23395); assay: as above; assay type: biochemical, Thermus thermophilus HB8 strain; conditions: amino acids 200 μM, hydroxylamine 400 mM
T2 construct: host or cells: Escherichia coli BL21 (DE3)
T2 sequence (P23395 whole entry): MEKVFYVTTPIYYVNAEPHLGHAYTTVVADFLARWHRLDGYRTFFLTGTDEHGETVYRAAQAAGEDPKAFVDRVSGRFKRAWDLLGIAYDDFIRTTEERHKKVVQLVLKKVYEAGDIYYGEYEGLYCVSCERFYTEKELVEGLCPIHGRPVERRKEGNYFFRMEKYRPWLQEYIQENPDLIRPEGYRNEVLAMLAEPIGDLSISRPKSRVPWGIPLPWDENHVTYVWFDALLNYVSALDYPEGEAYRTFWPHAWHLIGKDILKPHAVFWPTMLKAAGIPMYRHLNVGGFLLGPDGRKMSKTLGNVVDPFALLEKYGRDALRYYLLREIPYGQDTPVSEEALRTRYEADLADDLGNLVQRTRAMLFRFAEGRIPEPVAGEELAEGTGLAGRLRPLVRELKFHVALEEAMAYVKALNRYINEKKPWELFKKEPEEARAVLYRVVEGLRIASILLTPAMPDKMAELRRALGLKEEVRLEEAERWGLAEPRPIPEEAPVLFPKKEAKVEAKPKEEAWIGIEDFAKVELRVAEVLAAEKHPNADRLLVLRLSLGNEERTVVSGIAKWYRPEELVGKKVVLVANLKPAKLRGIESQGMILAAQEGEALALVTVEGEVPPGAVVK
Method: as §1, §2, §3, §4, §5

Thermotoga-derived SerRS = target: T3, Thermotoga-derived SerRS (Thermotoga maritima, UniProt Q9X199); assay: Qualitative test of AARS substrate specificity (molybdenum blue method); assay type: biochemical, Thermotoga maritima MSB8 strain; conditions: Tyr 1 mM, other amino acids 5 mM; hydroxylamine 1000 mM; SerRS 0.1 mg/ml (1 mU/ml); 30° C.
T3 construct: His tag (C); made in house; host or cells: Escherichia coli BL21 (DE3)
T3 sequence (Q9X199 whole entry): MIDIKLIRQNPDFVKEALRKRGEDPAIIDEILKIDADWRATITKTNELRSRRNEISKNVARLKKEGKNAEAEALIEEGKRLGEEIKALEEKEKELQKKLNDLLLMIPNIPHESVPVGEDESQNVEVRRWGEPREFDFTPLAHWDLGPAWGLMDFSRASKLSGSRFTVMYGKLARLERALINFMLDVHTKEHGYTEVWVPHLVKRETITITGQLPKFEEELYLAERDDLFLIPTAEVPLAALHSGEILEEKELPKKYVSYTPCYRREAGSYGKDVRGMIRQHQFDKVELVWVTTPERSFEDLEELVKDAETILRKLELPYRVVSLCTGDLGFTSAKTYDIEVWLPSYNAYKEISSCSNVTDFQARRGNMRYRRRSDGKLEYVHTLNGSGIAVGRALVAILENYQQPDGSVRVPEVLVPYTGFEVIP
Method: (§6) A test sample containing an amino acid as the measurement subject and a reaction mixture for quantifying amino acid having the following composition were mixed. The mixture was left standing at 30° C. to allow the AARS reaction to advance. The mixture in a volume of 33 μl, 66 μl of water, and 1 μl of a 300 U/ml yeast pyrophosphatase solution were mixed, and left standing at room temperature for 20 minutes to allow the pyrophosphatase reaction to advance. Then, the reaction mixture was mixed with 100 μl of a color development solution A and 30 μl of a color developing solution B having the following compositions, then the mixture was left standing at room temperature for 5 minutes, and the absorbance was measured at 700 nm or 900 nm with a microplate reader.
(§7) Reaction mixture for quantifying amino acid: 20 mM Tris-HCl (pH 7.0), 5 mM MgCl2, 2 mM ATP, and AARS (concentrations are final concentrations obtained after mixing with test sample)
(§8) Color developing solution A: A solution obtained by mixing water and concentrated sulfuric acid at a ratio of 3:1 and dissolving (NH4)6Mo7O24.4H2O in the mixture at a concentration of 0.066 g/ml
(§9) Color developing solution B: A solution obtained by mixing water and concentrated sulfuric acid at a ratio of 10000:7 and dissolving FeSO4.7H2O in the mixture at a concentration of 145 mg/ml
as §4, §5

Thermotoga-derived TrpRS = target: T4, Thermotoga-derived TrpRS (Thermotoga maritima, UniProt Q9WYW2); assay: as above; assay type: biochemical, Thermotoga maritima MSB8 strain; conditions: Tyr 1 mM, other amino acids 5 mM; hydroxylamine 1000 mM; TrpRS 0.1 mg/ml; 30° C.
T4 construct: His tag (C); made in house; host or cells: Escherichia coli BL21 (DE3)
T4 sequence (Q9WYW2 1-328): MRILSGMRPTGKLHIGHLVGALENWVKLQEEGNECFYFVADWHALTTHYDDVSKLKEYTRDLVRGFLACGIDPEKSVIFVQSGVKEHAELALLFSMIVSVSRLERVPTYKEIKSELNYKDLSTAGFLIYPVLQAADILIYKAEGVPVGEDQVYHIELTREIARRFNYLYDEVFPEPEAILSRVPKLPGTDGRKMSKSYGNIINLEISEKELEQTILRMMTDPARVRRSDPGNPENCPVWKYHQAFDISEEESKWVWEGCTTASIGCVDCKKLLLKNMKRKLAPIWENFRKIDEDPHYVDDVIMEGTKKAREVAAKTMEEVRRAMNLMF
Method: as §6, §7, §8, §9, §4, §5

Thermotoga-derived LysRS = target: T5, Thermotoga-derived LysRS (Thermotoga maritima, UniProt Q9X231); assay: as above; assay type: biochemical, Thermotoga maritima MSB8 strain; conditions: Tyr 1 mM, other amino acids 5 mM; hydroxylamine 1000 mM; LysRS 0.2 mg/ml (3 mU/ml); 30° C.
T5 construct: His tag (C); made in house; host or cells: Escherichia coli BL21 (DE3)
T5 sequence (Q9X231 1-502): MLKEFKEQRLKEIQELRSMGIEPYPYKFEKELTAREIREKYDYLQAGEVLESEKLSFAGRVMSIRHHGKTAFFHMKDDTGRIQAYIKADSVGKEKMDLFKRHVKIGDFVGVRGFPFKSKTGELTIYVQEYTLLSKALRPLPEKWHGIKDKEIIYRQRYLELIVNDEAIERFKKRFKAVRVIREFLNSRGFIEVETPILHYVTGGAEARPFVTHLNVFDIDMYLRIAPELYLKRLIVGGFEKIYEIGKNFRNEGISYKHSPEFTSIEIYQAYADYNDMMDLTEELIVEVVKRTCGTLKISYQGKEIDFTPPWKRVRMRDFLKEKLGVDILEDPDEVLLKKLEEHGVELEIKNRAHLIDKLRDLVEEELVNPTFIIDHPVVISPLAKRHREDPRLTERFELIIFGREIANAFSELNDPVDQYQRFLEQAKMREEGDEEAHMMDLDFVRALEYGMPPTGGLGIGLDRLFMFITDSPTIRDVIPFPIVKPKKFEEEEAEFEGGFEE
Method: as §6, §7, §8, §9, §4, §5

T1 sequence (P83453 whole entry): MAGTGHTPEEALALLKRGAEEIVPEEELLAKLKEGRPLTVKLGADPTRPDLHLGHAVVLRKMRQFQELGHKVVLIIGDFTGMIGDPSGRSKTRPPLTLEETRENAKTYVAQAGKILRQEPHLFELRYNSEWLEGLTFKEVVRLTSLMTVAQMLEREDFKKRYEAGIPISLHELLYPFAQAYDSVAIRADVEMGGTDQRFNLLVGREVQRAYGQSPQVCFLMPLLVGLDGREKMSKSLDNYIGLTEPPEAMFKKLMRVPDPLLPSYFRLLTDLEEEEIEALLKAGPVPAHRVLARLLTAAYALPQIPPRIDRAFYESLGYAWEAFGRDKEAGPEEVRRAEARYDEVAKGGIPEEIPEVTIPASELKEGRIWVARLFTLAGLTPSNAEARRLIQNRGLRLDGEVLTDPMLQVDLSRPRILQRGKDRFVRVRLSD

O=C(O)[C@@H]1CCCN1 [Pro, L-proline]
Detection of the activity (pyrophosphate production), TyrRS (Thermus) (Thermus-derived TyrRS): − | Detection of the activity (pyrophosphate production), MetRS (Thermus) (Thermus-derived MetRS): − | Detection of the activity (pyrophosphate generation), SerRS (Thermotoga-derived SerRS): − | Detection of the activity (pyrophosphate generation), TrpRS (Thermotoga-derived TrpRS): − | Detection of the activity (pyrophosphate generation), LysRS (Thermotoga-derived LysRS): −

N[C@@H](CO)C(=O)O [Ser, L-serine]
Detection of the activity (pyrophosphate production), TyrRS (Thermus) (Thermus-derived TyrRS): − | Detection of the activity (pyrophosphate production), MetRS (Thermus) (Thermus-derived MetRS): − | Detection of the activity (pyrophosphate generation), SerRS (Thermotoga-derived SerRS): + | Detection of the activity (pyrophosphate generation), TrpRS (Thermotoga-derived TrpRS): − | Detection of the activity (pyrophosphate generation), LysRS (Thermotoga-derived LysRS): −

C[C@@H](O)[C@H](N)C(=O)O [Thr, L-threonine]
Detection of the activity (pyrophosphate production), TyrRS (Thermus) (Thermus-derived TyrRS): − | Detection of the activity (pyrophosphate production), MetRS (Thermus) (Thermus-derived MetRS): − | Detection of the activity (pyrophosphate generation), SerRS (Thermotoga-derived SerRS): − | Detection of the activity (pyrophosphate generation), TrpRS (Thermotoga-derived TrpRS): − | Detection of the activity (pyrophosphate generation), LysRS (Thermotoga-derived LysRS): −

N[C@@H](Cc1c[nH]c2ccccc12)C(=O)O [Trp, L-tryptophan]
Detection of the activity (pyrophosphate production), TyrRS (Thermus) (Thermus-derived TyrRS): − | Detection of the activity (pyrophosphate production), MetRS (Thermus) (Thermus-derived MetRS): − | Detection of the activity (pyrophosphate generation), SerRS (Thermotoga-derived SerRS): − | Detection of the activity (pyrophosphate generation), TrpRS (Thermotoga-derived TrpRS): + | Detection of the activity (pyrophosphate generation), LysRS (Thermotoga-derived LysRS): −

N[C@@H](Cc1ccc(O)cc1)C(=O)O [Tyr, L-tyrosine]
Detection of the activity (pyrophosphate production), TyrRS (Thermus) (Thermus-derived TyrRS): + | Detection of the activity (pyrophosphate production), MetRS (Thermus) (Thermus-derived MetRS): − | Detection of the activity (pyrophosphate generation), SerRS (Thermotoga-derived SerRS): − | Detection of the activity (pyrophosphate generation), TrpRS (Thermotoga-derived TrpRS): − | Detection of the activity (pyrophosphate generation), LysRS (Thermotoga-derived LysRS): −

CC(C)[C@H](N)C(=O)O [Val, L-valine]
Detection of the activity (pyrophosphate production), TyrRS (Thermus) (Thermus-derived TyrRS): − | Detection of the activity (pyrophosphate production), MetRS (Thermus) (Thermus-derived MetRS): − | Detection of the activity (pyrophosphate generation), SerRS (Thermotoga-derived SerRS): − | Detection of the activity (pyrophosphate generation), TrpRS (Thermotoga-derived TrpRS): − | Detection of the activity (pyrophosphate generation), LysRS (Thermotoga-derived LysRS): −
